Target: T1, 20S proteasome (CT-like peptidase, β5 subunit) (Homo sapiens, UniProt P28074)
T1 construct: gene PSMB5; purified 20S proteasome; with 20S proteasome
T1 sequence (P28074 60-263): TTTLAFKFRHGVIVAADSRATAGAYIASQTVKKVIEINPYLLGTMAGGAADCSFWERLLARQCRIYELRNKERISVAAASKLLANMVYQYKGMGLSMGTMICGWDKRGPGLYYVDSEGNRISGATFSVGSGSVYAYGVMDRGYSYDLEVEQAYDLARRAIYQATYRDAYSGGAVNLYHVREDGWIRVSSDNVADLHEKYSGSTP
Experiment: fluorogenic CT-like peptidase assay with purified […] proteasome
Assay type: biochemical

[O-][n+]1ccccc1[S][Cu][S]c1cccc[n+]1[O-] [L1, CuPT]
IC50: ~6 µM
